The test system of assay [1] is human placental vessel explants (capillaries sprouts). As to the kind of experiment: In vitro cultures of human placental vessels, sprouting index by image analysis. The assay is classed as cell-based. To be noted: 10^−6 M, treated every two days for 28 days. How it is done:
The experimental procedure described by Brown et al., (Laboratory Investigation 1996, 75: 539–555) was followed and modified in the present study. Immediately after the spontaneous delivery, the placenta was collected in sterile conditions and superficial blood vessels, approximately […] in diameter and from 1 to 5 cm in length, were excised. Vessel explants were placed in phosphate buffered saline (PBS) solution containing […] of amphotericin B and 50 μg/mL of gentamycin and were cut into approximately 1-mm fragments. […]
The image analysis procedures described by Bocci et al., (Cancer Chemotherapy Pharmacology 1999, 43: 205–212), were adopted for the present study. […] The true color image analysis software package KS 300 v.1.2 (Kontron Elektronik GmbH, Eching, Germany) was run for interactive manipulation, quantification of the images and data collection. […] In the fibrin culture of placental vessel explants the mean gray level of the sprouting area was measured and the sprouting index (SI) was defined as: Sprouting index=((sprouting area/mean gray level of sprouting area)/perimeter of explant)×100. Results are expressed as the percentage of sprouting index+/−S.E. versus controls.

Assay [2] has as its system immortalized human microvascular endothelial HMEC-1 cells. As to the kind of experiment: Cytotoxicity assay (cell proliferation). Conditions: 10^−6 M (+VEGF 10 ng/mL), 72 hours. Type of assay: cell-based. The procedure: The immortalized human microvascular endothelial cell line HMEC-1, characterized by Ades, et al., (Journal of Investigative Dermatology 1992, 99: 683–690), was maintained in Medium 199, supplemented with 10% heat-inactivated fetal bovine serum (FBS), penicillin (50 IU/mL) and hydrocortisone (100 μg/mL). Cells were routinely grown in 75 cm2 gelatin-coated tissue culture flasks and kept in a humidified atmosphere of 5% CO2 at 37° C. Cells were harvested with a solution of 0.25% trypsin-0.03% EDTA when they were in long phase of growth and maintained at the above-described culture conditions for all experiments.
In vitro chemosensitivity testing was performed on single-cell suspensions of HEMC-1 cells (5×10^3 cells/well) plated in 96-well gelatin-coated sterile plastic plates and allowed to attach overnight. […] The treatments were scheduled so that each peptide was represented by at least nine wells. At the end of the experiment, cells were rinsed with phosphate buffered saline (PBS), harvested with trypsin/EDTA, and counted with an hemocytometer. Results are expressed as the percentage of cell proliferation versus controls and are the mean of three separate experiments±S.E repeated thrice.

For the compound `Cc1cc(C)c(/C=C2\C(=O)Nc3ccccc32)[nH]1` [SU5416, 3-((2,4-dimethylpyrrol-5-yl)methylidenyl)-2-indolinone], the “sprouting index (SI) as compared to untreated controls” value in assay [1] was 32.92±9.7%. This compound also gave a cell growth block in assay [2] of 56.2%.

Values taken from patent publication US7084117B2, “Pharmaceutical compositions which inhibit vascular proliferation and method of use thereof” (Societe de Conseils de Recherches et d'Applications …, priority 2001, dated 2006).
